Reference: ChEMBL document CHEMBL3507680, “University of Dundee, Gates Library screen for HepG2 cell viability”

Test: Human HepG2 cell viability assay in 384 well format
Assay type: toxicity, cell-based
Design: dose 125 nL, time 70.5 hour; cytotoxicity at 70.5 h: concentration not given beside the values
Details: HepG2 cells, read-out: Inhibition

SMILES	cytotoxicity at 70.5 h [%]
CC(O)(CN1CCC2(CC1)OCCO2)c1cccc(C(F)(F)F)c1 (stereo not drawn)	-4.13
CC1(c2ccc(Br)cc2)CC(=O)N(CC(N)=O)C1=O (stereo not drawn)	32.3
COCC(NC(=O)c1cn(-c2cccc(Cl)c2F)nn1)C1CC1 (stereo not drawn)	-0.579
N#CC(NC(=O)CC1CCSCC1)c1cnn(-c2ccccc2)c1 (stereo not drawn)	-3.51
CCN(CCc1ccccc1)Cn1nc(C)c2c(C)onc2c1=O	-1.87
CCn1cc(CNC(=O)CCn2ncc3c(Cl)cccc32)cn1	17.5
CCCc1n[nH]c(C2CN(CCCS(=O)(=O)N(C)C)CCO2)n1 (stereo not drawn)	-4.5
CN(c1ncccc1CNS(=O)(=O)N1CCOCC1)C1CCCCC1	18.5
CCS(=O)(=O)Nc1cnn(Cc2cccc(C)c2)c1	-3.36
Cc1csc(C2CCCCN2C(=O)CCCn2cncn2)n1 (stereo not drawn)	-9.21
CCS(=O)(=O)N1Cc2nccn2CC(Cn2cncn2)C1 (stereo not drawn)	0.16
CCCNC(=O)CNc1ccc(C(=O)N2CCCCC2C)cc1C (stereo not drawn)	-2.88
COc1ccc(C2CCCN2C(=O)NCCCn2ccnc2)cc1 (stereo not drawn)	16.1
COc1ccc(N2CCC(NCc3csc(C(C)C)n3)CC2)cc1	4.75
O=C(CCNc1ncccn1)N1CCC(Nc2cccnn2)CC1	-2.9
Cc1nc[nH]c1-c1nccn1CCN1CCCOC1=O	-5.03
O=C(c1c[nH]cn1)N1CCOCC2(C1)CN(c1ccccc1)C(=O)CO2 (stereo not drawn)	-13.7
O=C(c1cc2c(s1)CCC2)N1CCC(c2cnccn2)CC1	-6.29
Cn1ccc(CS(=O)(=O)Cc2ccccc2)cc1=O	-12.9
COCc1ccccc1C(=O)NCC(O)c1ccccc1F (stereo not drawn)	-2.57
Cc1cc(C)c(CNC(=O)N2CCC(N3CCNC3=O)CC2)c(=O)[nH]1	-10.5
CCOCCN1Cc2ncn(C)c2C(COCC2CCOCC2)C1 (stereo not drawn)	-7.05
CN(Cc1ccc2c(c1)OCO2)Cc1nc(Cc2ccccc2)no1	-5.91

SMILES	cytotoxicity at 70.5 h [%]
CN(C)C(=O)c1nc2c(s1)CCCN2Cc1ccccc1	-7.89
COc1cccc(-c2n[nH]cc2CNCC2CCS(=O)(=O)C2)c1 (stereo not drawn)	0.998
Cc1noc(C)c1CN1CCC2(CC1)CN(c1ccccn1)CCO2	17.3
Cc1noc([C@]23COC[C@H]2CN(Cc2cc(C)on2)C3)n1	47.3
CCN1Cc2ccccc2CC2(CCN(CC(=O)O)CC2)C1=O	15.3
CN(C)S(=O)(=O)N1CCC[C@]2(C[C@@H](Oc3ccccn3)CO2)C1	-17.2
CC(C(N)=O)N1CCN(c2ncc(Br)cn2)CC1 (stereo not drawn)	0.267
CS(=O)(=O)N1CC[C@]2(C[C@@H](Oc3ccccn3)CO2)C1	-3.36
Clc1ccc(CN2CCCCC2Cn2cncn2)c2ncccc12 (stereo not drawn)	-0.976
Cc1cccc(C)c1NCc1noc(C2CC2)n1	0.946
COc1cnc(N2CCCN(c3ccc(F)cc3)CC2)nc1	8.19
CNS(=O)(=O)CC(=O)N1CCC(c2ccc(F)c(F)c2)CC1	0.695
O=C(c1ccco1)N1CCOCC2(C1)CN(c1ccccc1)C(=O)CO2 (stereo not drawn)	-5.76
CC(NC(=O)Cn1cccnc1=O)c1ccc(OC(F)(F)F)cc1 (stereo not drawn)	-8.28
Cc1ccc2nc(C)cc(NCCNS(=O)(=O)c3cccnc3)c2c1	-2.02
COCc1cc(CNC(=O)c2c(C)cc(C)[nH]c2=O)n[nH]1	-1.97
OC1(CNCCCN2CCc3ccccc32)CCNC1 (stereo not drawn)	22.2
CN1CCc2c(C#N)c(NCCc3ccccc3)n3cnnc3c2C1	-12.4
Cc1ccc(N2CC[C@H]3OCC[C@@]3(C(=O)NC(C)C)C2)nn1	1.98
c1cnc(NC[C@@H]2CCC[C@@H]3CN(Cc4cccnc4)C[C@@H]32)nc1	-2.09
Cc1nccc(-c2cccc(NCC(=O)N3CCOC(C)C3)c2)n1 (stereo not drawn)	-3.45
Cn1nc(C2CCCN(Cc3ccc(F)cc3F)C2)c2nccnc21 (stereo not drawn)	0.45
CC1CCCCN1C(=O)c1cn(-c2ccc(C(F)(F)F)cn2)nn1 (stereo not drawn)	-6.25

SMILES	cytotoxicity at 70.5 h [%]
Cc1cc(CNCC2(O)CCOCC2)ccc1F	-0.741
Fc1ccc(-c2nc(CN3CCn4c(nnc4C4CC4)C3)co2)cc1	-8.13
Cc1ccc(CN2CCC(F)(F)C3(CCN(c4cnccn4)C3)C2)o1 (stereo not drawn)	-1.47
NC(=O)CC1CCN(C(=O)NCC2(c3ccccc3F)CC2)CC1	0.188
Cc1noc(C)c1CN1CC[C@H]2OCC[C@@H](C(=O)N3CCCO3)[C@@H]2C1	-14.6
CS(=O)(=O)N1CCC(N2CCCC2c2ccccn2)CC1 (stereo not drawn)	2.33
Cc1ccccc1CN1C[C@@H](C(=O)N2CCCCO2)C[C@H]2OCC[C@H]21	-7.46
Cc1cnc(N2CCOC3(CCCN(CC(=O)N(C)C)C3)C2)nc1 (stereo not drawn)	-3.5
CCN(C(=O)Nc1nccs1)C(C)c1cccc(O)c1 (stereo not drawn)	-9.8
CCN1CCC2(CC1)OCCN2C(=O)c1ccc(OC)c(Cl)c1	3.75
O=C(NCC1CCCO1)c1cc(Sc2ncccn2)ccn1 (stereo not drawn)	24.8
Cc1nnsc1C(=O)N1CC[C@H](c2ccccc2)[C@@H]2[C@H]1CCCCN2C	-3.09
Cc1cc(C(=O)NCCN2CCCc3ccccc32)[nH]n1	22.8
CCn1cc(NC(=O)NCCc2ccc3c(c2)OCCO3)cn1	-6.54
CC(C)NC(=O)CCN1CCCC1c1cccc2c1OCCO2 (stereo not drawn)	-8.96
COc1ccc(C(=O)N(C)Cc2cc(C)on2)c(OC)c1	-4.71
OCC1CCCN(Cc2c(C3CCCC3)[nH]c3ncccc23)C1 (stereo not drawn)	13.9
COc1nc2ccn(CCc3cnccn3)c(=O)c2cc1C#N	40.2
CN(C)Cc1nc(C(C)(C)NC(=O)c2cccc3ccccc23)no1	-7.53
Cc1nc(COC[C@@H]2CCC[C@@]23CNCCO3)cs1	15.5
CCn1nc2c(cc1=O)CN(Cc1nc(-c3ccco3)no1)CC2	-10.1
NC(=O)CCn1ccc(NC(=O)c2ccc(Br)o2)n1	-5.23
CCCS(=O)(=O)N1CCC2(CC(=O)N(c3cnn(C)c3)C2)C1 (stereo not drawn)	-7.78

SMILES	cytotoxicity at 70.5 h [%]
CC(C)n1cnnc1CNC(=O)c1cnn(Cc2ccccc2)c1	-2.61
Cc1cnn(CC2CCCN2C(=O)Cc2c(C)nc(C)[nH]c2=O)c1 (stereo not drawn)	15.2
COc1ccc(Cl)cc1CS(=O)(=O)CC(=O)NC(C)CCC(C)C (stereo not drawn)	-11.8
COc1ccc(OC)c(CNC(=O)N2CCC(n3cncn3)CC2)c1	35
CC(C)(C)n1ncc2c1NC(=O)CC2c1cccs1 (stereo not drawn)	-6.21
COc1ccc(C(=O)C2CCCN(Cc3ccccc3O)C2)c(OC)c1 (stereo not drawn)	35.7
CCc1cc(CN(C)C(=O)C2CC(=O)N(c3cccc(O)c3)C2)on1 (stereo not drawn)	-1.3
CCOCC1CN(Cc2cnn(C)c2)Cc2ncn(C)c21 (stereo not drawn)	-9.79
O=C(COc1ccccc1)N1CCC[C@]2(C[C@@H](OCC3CC3)CO2)C1	0.205
CC(C)c1cc(NC2CCN(C(=O)N3CCCC3)CC2)ncn1	12.6
CN1CCCN(C(=O)c2cc3c(s2)CCN3C(=O)c2ccccc2)CC1	-1.37
COc1ccc(C2(CNC(C)c3nnc(C)o3)CCCCC2)cc1 (stereo not drawn)	-8.26
CC(C)NC(=O)[C@@H]1C[C@@H](N)CN1C(=O)CCSCc1ccc(F)cc1	-3.93
O=C(NCc1cccnc1N1CCCCC1)c1ccc2[nH]nnc2c1	41.6
Cc1cc(N2CCC(N(C)C(=O)c3ccccc3F)CC2)nc(C)n1	15.8
CCS(=O)(=O)N1CCc2ccc(NC(=O)NCCc3ccccc3)cc21	-6.1
Cc1ccc(NC2CCN(C(=O)c3cncnc3C)CC2)nn1	14.7
Cc1ccc(-n2nnc(C(=O)NCCS(N)(=O)=O)c2C2CC2)cc1	-18.3
CCC(C(=O)N1CCN(C(=O)N2CCOCC2)CC1)n1cccn1 (stereo not drawn)	-5.93
CCc1cnc(CN2CCC(N(C)Cc3noc(C)n3)C2)o1 (stereo not drawn)	17
CC1=Nc2c(c(=O)[nH]n2C(C)C)C(c2ccccc2)S1 (stereo not drawn)	-3.86
CS(=O)(=O)NCCCn1ccc2ccccc21	-13.2
CC1CCc2nc(NC(=O)CN(C)C(=O)c3ccco3)sc2C1 (stereo not drawn)	28.3

SMILES	cytotoxicity at 70.5 h [%]
Cc1ccc(CNC2CCCN(Cc3noc(C4CC4)n3)C2)s1 (stereo not drawn)	28.4
COc1cc(Oc2ccc(C#N)cn2)ccc1CN1CCCC1	-5.77
Cn1cc(CNCCOc2ccc(F)c(F)c2)c(-c2cccnc2)n1	-5.61
CC(=O)N1CCCN(c2cc(C3CN(C)CCO3)nc(C)n2)CC1 (stereo not drawn)	12
CN(Cc1cccs1)C(=O)CNC1CCc2ncnn2C1 (stereo not drawn)	-5.9
COc1cc(N2CCC3(CCN(Cc4csc(C)n4)C3)CC2)ncn1	-5.2
O=C(NC[C@@H]1C[C@@H]2CN(C(=O)CO)C[C@H]2O1)c1ccsc1	21
O=C(CN1CCOc2ccccc2C1)N1Cc2cnn(CCO)c2C1	-0.755
CN1C(=O)C2(NC(=O)c3ccccc3O2)c2ccccc21 (stereo not drawn)	-16.5
COCC1c2c(cnn2C)CCN1Cc1ccc(F)cc1 (stereo not drawn)	-0.871
Cn1cc(C(=O)NCc2cncc3c2CCN(S(C)(=O)=O)C3)cn1	0.567
O=C(NCc1cnc2n1CCN(Cc1cccs1)C2)c1ccno1	18.9
CN(Cc1ccc(F)cc1)CC1(O)CCCN(CC(C)(C)C)C1=O (stereo not drawn)	-6.42
CN(C(=O)c1cc(F)ccc1F)[C@@H]1CC[C@@H](O)[C@@H]1O	-2.95
Cc1cnc(CNCc2cn(CCN3CCSCC3)nc2C)cn1	24.8
O=C(CNc1ccc(F)cc1OCC(F)(F)F)NCc1ccco1	-10.6
O=C(O)C[C@@H]1CCN(C(=O)C2CCCC2)C[C@@H]1CCN1CCCCC1	-1.16
COc1cccc(NC(=O)C(C)Cn2cc(Cl)cn2)c1 (stereo not drawn)	-7.91
Cc1nn(C)c(C)c1C1CCCN1CC(=O)Nc1cc(C(C)C)no1 (stereo not drawn)	-3.36
Cc1noc(C)c1S(=O)(=O)N1CCC(n2cccn2)CC1	-5.3
COc1ccc(N2CCN(CC(O)c3ccc(C)cc3C)CC2)cc1 (stereo not drawn)	-3.49
